Assay results taken from the supplement of paper PMC10307832.

Assays:
Assay in all cases: relative viability (nuclei count vs DMSO), 5 days (fraction); higher = more cells survive
GSK126 + Pictilisib = compound: CC[C@H](C)N1C=C(C2=C(C=C(C=C21)C3=CN=C(C=C3)N4CCNCC4)C(=O)NCC5=C(C=C(NC5=O)C)C)C [GSK126] + CS(=O)(=O)N1CCN(Cc2cc3nc(-c4cccc5[nH]ncc45)nc(N4CCOCC4)c3s2)CC1 [Pictilisib] (partner 1 µM)
Method in brief: (§1)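 After 5 days of treatment, lung cancer cells in 1536-well plates were fixed and stained in a single step (final 0.05% Triton X-100, 1% formaldehyde, 1 ug/ml Hoechst) and their nuclei counted on 4× images. Treatment had been applied by pin tool the day after seeding as one drug alone or as a fixed anchor-drug dose with five library-drug doses (not always all listed) in √10 steps. Relative viability is the nuclei count of treated wells divided by that of vehicle wells, and values are medians of duplicate plates.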

MLN4924 + Lapatinib = compound: NS(=O)(=O)OC[C@@H]1C[C@@H](n2ccc3c(N[C@H]4CCc5ccccc54)ncnc32)C[C@@H]1O [MLN4924] + CS(=O)(=O)CCNCc1ccc(-c2ccc3ncnc(Nc4ccc(OCc5cccc(F)c5)c(Cl)c4)c3c2)o1 [Lapatinib] (partner 2 µM)
Method in brief: as §1

MLN4924 + Luminespib = compound: NS(=O)(=O)OC[C@@H]1C[C@@H](n2ccc3c(N[C@H]4CCc5ccccc54)ncnc32)C[C@@H]1O [MLN4924] + CCNC(=O)c1noc(-c2cc(C(C)C)c(O)cc2O)c1-c1ccc(CN2CCOCC2)cc1 [Luminespib] (partner 0.01 µM)
Method in brief: as §1

Carboplatin + Dasatinib = compound: C1CC(C1)(C(=O)O)C(=O)O.[NH2-].[NH2-].[Pt+2] [Carboplatin] + Cc1nc(Nc2ncc(C(=O)Nc3c(C)cccc3Cl)s2)cc(N2CCN(CCO)CC2)n1 [Dasatinib] (partner 0.075 µM)
Method in brief: as §1

| Cell Line | relative viability (GSK126 + Pictilisib; first compound 0.08 µM) | relative viability (GSK126 + Pictilisib; first compound 0.253 µM) | relative viability (GSK126 + Pictilisib; first compound 0.8 µM) | relative viability (GSK126 + Pictilisib; first compound 2.53 µM) | relative viability (GSK126 + Pictilisib; first compound 8 µM) | relative viability (MLN4924 + Lapatinib; first compound 0.04 µM) | relative viability (MLN4924 + Lapatinib; first compound 0.1265 µM) | relative viability (MLN4924 + Lapatinib; first compound 0.4 µM) | relative viability (MLN4924 + Lapatinib; first compound 1.265 µM) | relative viability (MLN4924 + Lapatinib; first compound 4 µM) | relative viability (MLN4924 + Luminespib; first compound 0.04 µM) | relative viability (MLN4924 + Luminespib; first compound 0.1265 µM) | relative viability (MLN4924 + Luminespib; first compound 0.4 µM) | relative viability (MLN4924 + Luminespib; first compound 1.265 µM) | relative viability (MLN4924 + Luminespib; first compound 4 µM) | relative viability (Carboplatin + Dasatinib; first compound 0.08 µM) | relative viability (Carboplatin + Dasatinib; first compound 0.253 µM) | relative viability (Carboplatin + Dasatinib; first compound 0.8 µM) | relative viability (Carboplatin + Dasatinib; first compound 2.53 µM) | relative viability (Carboplatin + Dasatinib; first compound 8 µM) |
| --- | --- | --- | --- | --- | --- | --- | --- | --- | --- | --- | --- | --- | --- | --- | --- | --- | --- | --- | --- | --- |
| NCI-H2126 | 0.497 | 0.531 | 0.523 | 0.496 | 0.502 | 0.724 | 0.762 | 0.406 | 0.241 | 0.261 | 0.898 | 0.843 | 0.609 | 0.472 | 0.309 | 0.727 | 0.693 | 0.71 | 0.57 | 0.501 |
| NCI-H838 | 0.507 | 0.35 | 0.403 | 0.426 | 0.369 | 0.754 | 0.273 | 0.257 | 0.126 | 0.148 | 0.23 | 0.279 | 0.173 | 0.12 | 0.125 | 0.306 | 0.3 | 0.331 | 0.319 | 0.275 |
| EPLC-272H | 0.35 | 0.337 | 0.26 | 0.329 | 0.3 | 0.848 | 0.805 | 0.106 | 0.119 | 0.165 | 0.328 | 0.152 | 0.219 | 0.164 | 0.143 | 0.455 | 0.342 | 0.326 | 0.365 | 0.399 |
| NCI-H1437 | 0.44 | 0.504 | 0.406 | 0.455 | 0.405 | 0.79 | 0.656 | 0.268 | 0.119 | 0.1 | 0.783 | 1.05 | 0.811 | 0.626 | 0.226 | 0.619 | 0.411 | 0.428 | 0.411 | 0.325 |
| NCI-H2405 | 0.427 | 0.385 | 0.437 | 0.452 | 0.397 | 1.26 | 1.05 | 0.511 | 0.192 | 0.195 | 0.608 | 0.469 | 0.518 | 0.286 | 0.241 | 0.234 | 0.206 | 0.214 | 0.191 | 0.215 |
| NCI-H1666 | 0.558 | 0.483 | 0.379 | 0.384 | 0.528 | 0.382 | 0.307 | 0.305 | 0.159 | 0.211 | 1 | 1.05 | 0.498 | 0.324 | 0.342 | 0.836 | 0.774 | 0.589 | 0.533 | 0.561 |
| NCI-H1993 | 0.841 | 0.795 | 0.828 | 0.902 | 0.782 | 0.732 | 0.666 | 0.581 | 0.547 | 0.516 | 0.482 | 0.458 | 0.441 | 0.406 | 0.47 | 0.517 | 0.591 | 0.522 | 0.559 | 0.601 |
| LU99A | 0.33 | 0.32 | 0.284 | 0.342 | 0.362 | 0.779 | 0.339 | 0.294 | 0.145 | 0.151 | 0.248 | 0.177 | 0.203 | 0.194 | 0.206 | 0.562 | 0.559 | 0.511 | 0.39 | 0.384 |
| NCI-H520 | 0.265 | 0.261 | 0.271 | 0.256 | 0.281 | 0.594 | 0.437 | 0.323 | 0.17 | 0.162 | 0.25 | 0.2 | 0.227 | 0.213 | 0.205 | 0.216 | 0.239 | 0.185 | 0.263 | 0.193 |
| NCI-H661 | 0.43 | 0.433 | 0.401 | 0.565 | 0.345 | 0.538 | 0.632 | 0.499 | 0.228 | 0.28 | 0.744 | 0.691 | 0.484 | 0.385 | 0.351 | 1.06 | 0.923 | 0.844 | 0.82 | 0.746 |
| NCI-H1975 | 0.328 | 0.301 | 0.321 | 0.291 | 0.274 | 1.13 | 1.02 | 0.308 | 0.152 | 0.169 | 0.322 | 0.556 | 0.36 | 0.382 | 0.252 | 0.433 | 0.374 | 0.358 | 0.366 | 0.375 |
| NCI-H1355 | 0.476 | 0.531 | 0.447 | 0.499 | 0.447 | 0.952 | 1.02 | 0.64 | 0.181 | 0.166 | 0.636 | 0.684 | 0.775 | 0.366 | 0.208 | 0.729 | 0.759 | 0.776 | 0.667 | 0.656 |
| NCI-H1755 | 0.512 | 0.451 | 0.459 | 0.46 | 0.384 | 0.933 | 1.03 | 0.386 | 0.181 | 0.165 | 0.441 | 0.443 | 0.238 | 0.221 | 0.231 | 0.451 | 0.441 | 0.395 | 0.462 | 0.452 |
| NCI-H2009 | 1.14 | 0.69 | 0.827 | 0.908 | 0.908 | 0.437 | 0.261 | 0.237 | 0.087 | 0.111 | 0.924 | 0.553 | 0.292 | 0.18 | 0.139 | 0.321 | 0.286 | 0.29 | 0.291 | 0.249 |
| LK-2 | 0.772 | 0.54 | 0.637 | 0.658 | 0.486 | 0.521 | 0.656 | 0.638 | 0.272 | 0.257 | 0.234 | 0.173 | 0.192 | 0.212 | 0.182 | 0.275 | 0.252 | 0.295 | 0.197 | 0.379 |
| HCC-827 | 1.19 | 1.25 | 1.01 | 0.953 | 1.12 | 0.242 | 0.283 | 0.398 | 0.182 | 0.166 | 0.68 | 0.588 | 0.548 | 0.159 | 0.163 | 0.327 | 0.326 | 0.337 | 0.35 | 0.432 |
| NCI-H322M | 0.431 | 0.517 | 0.507 | 0.509 | 0.454 | 0.796 | 1.01 | 1.19 | 0.301 | 0.285 | 1.25 | 1.11 | 0.989 | 0.488 | 0.311 | 0.281 | 0.243 | 0.255 | 0.256 | 0.257 |
| NCI-H727 | 0.269 | 0.367 | 0.317 | 0.367 | 0.43 | 0.692 | 0.704 | 0.352 | 0.24 | 0.192 | 0.31 | 0.382 | 0.368 | 0.383 | 0.235 | 0.472 | 0.356 | 0.374 | 0.364 | 0.376 |
| NCI-H1944 | 0.356 | 0.349 | 0.367 | 0.36 | 0.391 | 0.834 | 0.919 | 0.636 | 0.164 | 0.17 | 0.783 | 0.482 | 0.578 | 0.171 | 0.168 | 0.235 | 0.206 | 0.226 | 0.22 | 0.174 |
| BEN | 0.706 | 0.569 | 0.582 | 0.541 | 0.438 | 0.671 | 0.522 | 0.249 | 0.145 | 0.104 | 0.292 | 0.201 | 0.27 | 0.138 | 0.158 | 0.339 | 0.296 | 0.284 | 0.319 | 0.228 |
| CAL-12T | 0.466 | 0.499 | 0.357 | 0.596 | 0.343 |  | 0.603 | 0.354 | 0.198 | 0.243 | 0.488 | 0.56 | 0.262 | 0.192 | 0.307 | 0.375 | 0.502 | 0.419 | 0.521 | 0.372 |
| NCI-H2170 | 0.333 | 0.281 | 0.35 | 0.322 | 0.346 | 0.258 | 0.301 | 0.25 | 0.208 | 0.228 | 0.631 | 0.443 | 0.269 | 0.172 | 0.147 | 0.634 | 0.654 | 0.663 | 0.583 | 0.468 |
| NCI-H1792 | 0.289 | 0.272 | 0.35 | 0.3 | 0.246 | 0.806 | 0.599 | 0.484 | 0.182 | 0.175 | 0.515 | 0.436 | 0.495 | 0.321 | 0.359 | 0.831 | 0.776 | 0.816 | 0.692 | 0.62 |
| NCI-H2085 | 0.484 | 0.358 | 0.369 | 0.485 | 0.49 | 0.812 | 0.89 | 0.465 | 0.313 | 0.283 | 0.422 | 0.407 | 0.534 | 0.375 | 0.311 | 0.243 | 0.293 | 0.243 | 0.239 | 0.255 |
| EKVX | 0.417 | 0.474 | 0.408 | 0.518 | 0.353 | 0.208 | 0.311 | 0.19 | 0.119 | 0.102 | 0.943 | 0.756 | 0.682 | 0.257 | 0.166 | 0.603 | 0.582 | 0.48 | 0.446 | 0.495 |
| 201T | 0.686 | 0.8 | 0.738 | 0.691 | 0.728 | 1.13 | 1.09 | 0.826 | 0.384 | 0.417 | 1.15 | 0.916 | 0.887 | 0.384 | 0.29 | 0.575 | 0.571 | 0.569 | 0.487 | 0.576 |
